Measured values published in patent US5726325A, “Tricyclic compounds” (Kyowa Hakko Kogyo Co., Ltd., priority 1995, dated 1998).

How the values were obtained:
detrusor muscle [1] = assay: Test Example 1: relaxation of guinea pig bladder strips contracted with 50 mM KCl; assay type: cell-based, guinea pig (male albino Hartley); conditions: Cavia porcellus; contraction induced by 50 mM KCl; concentration decreasing detrusor contraction by 50%
From the text: (§1) The activity of Compound (I) as a smooth muscle relaxant which is useful as a therapeutic agent for urinary incontinence can be observed, for example, using the following tests. In the following Test Examples 1 and 2, "IC50 " means the concentration of a test compound which induces the decrease in the contraction of detrusor muscle by 50%.
(§2) Male albino Hartley guinea pigs (350-550 g) were used as test animals. Each animal was exsanguinated to death under pentobarbital sodium anesthesia. The lower abdominal cavity was opened and its bladder was positioned. The connective tissue and the fat tissue around the bladder were removed, and the bladder was cleaned. After two pelvic nerves on the surface of the abdominal side of the bladder were dissected, the bladder was taken out on the entrance of ureter. The bladder was washed with a Krebs-Henseleit buffer [composition (mM): NaCl 118, KCl 4.7, MgSO4 1.2, KH2 PO4 1.2, CaCl2 2.5, NaHCO3 25, and D-glucose 11.1], and then put on a gauze patch soaked in the buffer in a Petri dish. The dome and the trigone of the bladder were dissected and discarded. The back of the bladder was cut vertically in the middle with scissors, and the bladder was put flat on the gauze patch. The dome tip and the side of the trigone of the bladder were dissected and discarded, and the mucosa of the bladder was removed. The back of the bladder was cut vertically to get 6 strips which are ca. 2.0 mm wide and ca. 10 mm long.
(§3) One end of each strip was fixed on a plastic supporter rod, and the other end was fixed on a clip connected to a suture thread. The supporter was fixed in 20 ml of an organ bath and the suture thread connected to the clip was fixed on a force-displacement transducer (NIHON KODEN TB-611T). The tissue was suspended in a Krebs-Henseleit buffer, and the bath solution was warmed to 37° C. and bubbled with a gas mixture of 5% CO2 and 95% O2. The pH of the solution was adjusted to about 7.4. The transducer was connected to a polygraph (NIHON KODEN AP-621G), and the change of tension was recorded on a recorder (YOKOGAWA type 3066). The polygraph was graduated by 0.5 g/cm.
After the tissue was incubated in the buffer for 15 minutes without preloading, tension was added thereto for about one hour. The preloading tension added was 1.5 g and it was relaxed to about 1 g. The tissue was washed at intervals of 15 minutes and the tension was adjusted to 1.5 g just before washing. The tension of the tissue was adjusted to be a steady state at 1 g. After this equilibrium time, 50 mM KCl (the whole content in the bath) was added, and the tissue was washed 10 minutes later. KCl was added to the tissue at intervals of 30 minutes, followed by washing 10 minutes later, and KCl was applied repeatedly until the developed tension induced by KCl becomes constant. When the tissue was confirmed to contract constantly by the application of KCl and relax to the steady state after washing, 50 mM KCl was applied again. After the tissue reached the steady state and the base line was obtained, a test compound was applied by the cumulative method (half-logarithmic incremence). The contact time at each concentration was 30 minutes. The activity of the compound was expressed as the maximum relaxation rate (%) of the tension induced by the agonist.

detrusor muscle [2] = assay: Test Example 2: relaxation of guinea pig bladder strips, rhythmical contraction induced by 15 mM KCl; assay type: cell-based, guinea pig (male albino Hartley); conditions: Cavia porcellus, concentration decreasing detrusor contraction by 50%
From the text: as §1, §2, §3
The effect of a smooth muscle relaxant varies with the concentration of KCl based on the difference of an action mechanism. In the following Test Example, KCl was used at a concentration different from that in Test Example 1.
A sample of the excised bladder was prepared in the same manner as in Test Example 1, and the tension of the preparation was measured. After the tension of the tissue was adjusted to be a steady state at 1 g, 15 mM KCl was applied. After the rhythmical contraction was confirmed to appear by KCl, the tissue was washed. Then, 15 mM KCl was applied again. After the rhythmical contraction took place constantly and the tissue reached the steady state, a test compound was applied by the cumulative method (half-logarithmic incremence). The contact time at each concentration was 30 minutes. The activity of the compound was expressed as the maximum relaxation rate (%) of the tension induced by the agonist.

bladder [3] = assay: Test Example 3: vesical contraction interval in anesthetized rats, intravenous; assay type: in vivo, rat (female SD strain); conditions: 1 mg/kg i.v., average over 20 minutes, relative to pre-administration value
From the text: Female SD strain rats (120-180 g) were used as test animals. Each animal was anesthetized by subcutaneous administration of 1 g/kg urethane. A catheter was inserted into the trachea to secure respiration. A polyethylene cannula (PE50) was inserted into the bladder from the entrance of the urethra and the urethra was ligated at the base. A catheter for blood pressure measurement was inserted into the right carotid artery, and a cannula for drug administration was inserted into the right jugular vein. The arterial catheter and the vesical catheter were connected to pressure transducers to measure the blood pressure and the intravesical pressure. After the bladder was stabilized over about 15 minutes, physiological saline was injected into the bladder at a volume of 0.2-0.7 ml to induce the rhythmical contraction almost once a minute. […]
By this examination method, the effect of the test compounds on both blood pressure and vesical contraction can be evaluated. The blood pressure was measured 5, 15, and 30 minutes after the test compound was injected into the vein. […] The change of average contraction interval (time between contractions) over 20 minutes was expressed as the relative value based on the pre-administration value which was regarded as 100.

[4] = Test Example 3: arterial blood pressure in anesthetized rats, intravenous; assay type: in vivo, rat (female SD strain); conditions: 1 mg/kg i.v.
From the text: Female SD strain rats (120-180 g) were used as test animals. Each animal was anesthetized by subcutaneous administration of 1 g/kg urethane. A catheter was inserted into the trachea to secure respiration. A polyethylene cannula (PE50) was inserted into the bladder from the entrance of the urethra and the urethra was ligated at the base. A catheter for blood pressure measurement was inserted into the right carotid artery, and a cannula for drug administration was inserted into the right jugular vein. The arterial catheter and the vesical catheter were connected to pressure transducers to measure the blood pressure and the intravesical pressure. After the bladder was stabilized over about 15 minutes, physiological saline was injected into the bladder at a volume of 0.2-0.7 ml to induce the rhythmical contraction almost once a minute. After the contraction of the bladder started, the contraction pattern was stabilized for 30-45 minutes, followed by intravenous administration of a test compound.
By this examination method, the effect of the test compounds on both blood pressure and vesical contraction can be evaluated. The blood pressure was measured 5, 15, and 30 minutes after the test compound was injected into the vein. Micturition contraction was induced by injecting physiological saline into the bladder. The change of average contraction interval (time between contractions) over 20 minutes was expressed as the relative value based on the pre-administration value which was regarded as 100.

bladder [5] = assay: Test Example 4: micturition contraction interval in rats under partial restraint, oral; assay type: in vivo, rat (male SD strain); conditions: Rattus norvegicus, pre-administration = 100; for response vs control in vivo at 3 mg/kg: 3 mg/kg oral; for response vs control in vivo at 0.1 mg/kg: 0.1 mg/kg oral; for response vs control in vivo at 1 mg/kg: 1.0 mg/kg oral, second part of Table 4
From the text: As a control compound, cromakalim was used.

SMILES	IC50 (detrusor muscle [1])	IC50 (detrusor muscle [2])	response vs control in vivo at 1 mg/kg (bladder [5]; 1 hr after administration)	response vs control in vivo at 1 mg/kg (bladder [5]; 2 hr after administration)	response vs control in vivo at 1 mg/kg (bladder [5]; 3 hr after administration)	response vs control in vivo at 1 mg/kg (bladder [5]; 4 hr after administration)	response vs control in vivo at 1 mg/kg (bladder [5]; 5 hr after administration)	other results
CC(O)(C(=O)Nc1cccc2c1C(=O)c1sccc1CO2)C(F)(F)F (stereo not drawn) [Compound 7, 9-(3,3,3-Trifluoro-2-hydroxy-2-methylpropanoylamino)-4,10-dihydrothieno[3,2-c][1]benzoxepin-10-one]	2400 nM	2100 nM						Change of contraction interval (bladder [3]): +186%; Change of average arterial blood pressure ([4]; 5 min): -4%; Change of average arterial blood pressure ([4]; 15 min): +1%; Change of average arterial blood pressure ([4]; 30 min): +4%; response vs control in vivo at 3 mg/kg (bladder [5]; 1 hr): 132%; response vs control in vivo at 3 mg/kg (bladder [5]; 2 hr): 141%; response vs control in vivo at 3 mg/kg (bladder [5]; 3 hr): 149%; response vs control in vivo at 3 mg/kg (bladder [5]; 4 hr): 154%; response vs control in vivo at 3 mg/kg (bladder [5]; 5 hr): 146%
CC(O)(C(=O)Nc1cccc2c1C(=O)c1ccccc1CO2)C(F)(F)F (stereo not drawn) [Compound 1, 1-(3,3,3-Trifluoro-2-hydroxy-2-methylpropanoylamino)-6,11-dihydrodibenz[b,e]oxepin-11-one]	1700 nM	2400 nM						Change of contraction interval (bladder [3]): +150%; Change of average arterial blood pressure ([4]; 5 min): +5%; Change of average arterial blood pressure ([4]; 15 min): +5%; Change of average arterial blood pressure ([4]; 30 min): +5%; response vs control in vivo at 3 mg/kg (bladder [5]; 1 hr): 136%; response vs control in vivo at 3 mg/kg (bladder [5]; 2 hr): 148%; response vs control in vivo at 3 mg/kg (bladder [5]; 3 hr): 134%; response vs control in vivo at 3 mg/kg (bladder [5]; 4 hr): 122%; response vs control in vivo at 3 mg/kg (bladder [5]; 5 hr): 117%
C[C@](O)(C(=O)Nc1cccc2c1C(=O)c1sccc1CO2)C(F)(F)F [Compound 33, (S)-9-(3,3,3-trifluoro-2-hydroxy-2-methylpropanoylamino)-4,10-dihydrothieno[3,2-c][1]benzoxepin-10-one]	1100 nM	2700 nM						response vs control in vivo at 0.1 mg/kg (bladder [5]; 1 hr after administration): 135 ± 21.7%; response vs control in vivo at 0.1 mg/kg (bladder [5]; 2 hr after administration): 146 ± 25.5%; response vs control in vivo at 0.1 mg/kg (bladder [5]; 3 hr after administration): 143 ± 24.4%; response vs control in vivo at 0.1 mg/kg (bladder [5]; 4 hr after administration): 156 ± 30.6%; response vs control in vivo at 0.1 mg/kg (bladder [5]; 5 hr after administration): 161 ± 37.4%
CC(O)(C(=O)Nc1ccc2c(c1)OCc1ccccc1C2=O)C(F)(F)F (stereo not drawn) [Compound 2, 3-(3,3,3-Trifluoro-2-hydroxy-2-methylpropanoylamino)-6,11-dihydrodibenz[b,e]oxepin-11-one]	3600 nM	3400 nM	121 ± 6.2%	135 ± 12.3%	144 ± 16.3%	141 ± 15.6%	145 ± 16%	
CC(O)(C(=O)Nc1ccc2c(c1)C(=O)c1ccccc1-2)C(F)(F)F (stereo not drawn) [Compound 5, 2-(3,3,3-Trifluoro-2-hydroxy-2-methylpropanoylamino)fluoren-9-one]	8000 nM	2100 nM	112 ± 7%	136 ± 16.5%	137 ± 14.5%	132 ± 9.5%	131 ± 17.7%	
C[C@](O)(C(=O)Nc1cccc2c1C(=O)c1ccoc1CO2)C(F)(F)F [Compound 35, (S)-5-(3,3,3-Trifluoro-2-hydroxy-2-methylpropanoylamino)-4,10-dihydrofuro[2,3-c][1]benzoxepin-4-one]	31000 nM	1000 nM	123 ± 8.8%	124 ± 5.7%	131 ± 9.8%	138 ± 11%	144 ± 8.9%	
CC(O)(C(=O)Nc1cccc2c1C(=O)c1occc1CO2)C(F)(F)F (stereo not drawn) [Compound 15, 9-(3,3,3-Trifluoro-2-hydroxy-2-methylpropanoylamino)-4,10-dihydrofuro[3,2-c][1]benzoxepin-10-one]	7100 nM	9400 nM	130 ± 9.5%	128 ± 5.3%	107 ± 16.5%	121 ± 11.4%	135 ± 12.6%	
